“Also recorded” adds a separate entry of the source.
Legend:
[1] = tested on: mouse bone marrow-derived DC line DC2.4; experiment: Immune cell allergy model: RT-qPCR of allergy-associated genes in OVA-stimulated DC2.4 cells; assay type: cell-based; settings: HMO preparation at final concentration 100 μg/mL, versus sensitization group
Description: (§1) In a fourth aspect, the present disclosure also provides a use of the active HMO preparation in construction of an immune cell allergy model, where the construction method of the immune cell allergy model includes the following steps: • (1) taking a cryopreserved mouse bone marrow-derived dendritic cell (DC) line DC2.4, and subjecting the cryopreserved mouse bone marrow-derived DC line DC2.4 to recovery, activation, and subculture in an incubator (37° C. and 5% CO2); • (2) sacrificing a Balb/c female mouse through cervical dislocation, collecting a spleen in a clean bench, subjecting the spleen to grinding, red blood cell lysis, washing, and re-suspension with a cell culture medium to obtain a mouse spleen single-cell suspension, and purifying T cells from the spleen single-cell suspension through magnetic bead separation; • (3) inoculating the cells in a 12-well cell culture plate, dividing the cells into a control group, a sensitization group, and an intervention group with 3 biological replicates for each group, and culturing the cells in an incubator (37° C. and 5% CO2); and • (4) extracting total RNA from cells, and detecting an RNA concentration with a nucleoprotein concentration meter for follow-up experiments; and reverse-transcribing the extracted RNA immediately into cDNA, conducting quantitative reverse transcription polymerase chain reaction (RT-qPCR), and with β-actin as an internal reference gene, calculating a relative expression level of a target gene by a 2^−ΔΔCt method.
(§2) In the present disclosure, an effect of the preparation is verified. When the immune cell allergy model is constructed, a sensitinogen used is ovalbumin (OVA), and relative expression levels of genes for a pro-inflammatory factor OX40L, an anti-inflammatory factor IL-10, a Th2-type cytokine IL-5, a Th1-type associated cytokine T-bet, a Th2-type cytokine IL-4, and a Th1-type associated cytokine IFN-γ are calculated.
(1) A cryopreserved mouse bone marrow-derived DC line DC2.4 was taken and subjected to recovery, activation, and subculture, and cells of generation 4 to 6 with a strong activity were selected for the experiment.
(3) The cells were divided into 4 groups with 3 replicates for each group, including a control group, a sensitization group, an HMO preparation intervention group 1 (Example 1), and an HMO preparation intervention group 2 (Example 2). In the HMO preparation intervention groups, an HMO preparation was added at a final concentration of 100 μg/mL to cells, and the cells were cultured in an incubator (37° C. and 5% CO2).
(§3) (4) Total RNA was extracted from cells and reverse-transcribed into cDNA, and an expression level of an allergy-associated gene in the cells was detected by RT-qPCR. […]

[2] = tested on: purified T cells from mouse spleen; experiment: Immune cell allergy model: RT-qPCR of allergy-associated genes in OVA-stimulated purified T cells from mouse spleen; assay type: cell-based; settings: HMO preparation at final concentration 100 μg/mL, versus sensitization group
Description: as §1, §2
(2) An SPF grade Balb/c female mouse was sacrificed through cervical dislocation and dissected under sterile conditions, a spleen tissue was collected and subjected to grinding, red blood cell lysis, washing, and re-suspension with an RPMI-1640 medium to prepare a mouse spleen single-cell suspension, and T cells in the mouse spleen were extracted through magnetic bead separation.
(3) The cells were divided into 4 groups with 3 replicates for each group, including a control group, a sensitization group, an HMO preparation intervention group 1 (Example 1), and an HMO preparation intervention group 2 (Example 2). […]
as §3

food allergy mice = experiment: Food allergy mice (OVA sensitization), intragastric HMO preparation, RT-qPCR of spleen tissue; assay type: in vivo, mouse; settings: OVA-sensitized mice, intragastric administration, versus sensitized mice
Excerpt: The anti-allergy active HMO preparations of LNFP-I and 2′-FL were intragastrically administered to food allergy mice to alleviate food allergy symptoms.
(1) Mice were intragastrically administered with OVA for sensitization, and then intervened with an HMO preparation intervention group 1 (Example 1) and an HMO preparation intervention group 2 (Example 2), respectively.
(2) The mice were sacrificed through cervical dislocation and dissected under sterile conditions, and spleen tissues were collected and stored in liquid nitrogen.
(3) Total RNA was extracted from each mouse spleen tissue and reverse-transcribed into cDNA, and an expression level of an allergy-associated gene was detected by RT-qPCR.
The anti-allergy active HMO preparations were intragastrically administered in a mass ratio of 1:3 to food allergy mice to alleviate food allergy symptoms.
(1) Mice were intragastrically administered with OVA for sensitization, and then intervened with the anti-allergy active HMO preparation prepared in Example 5 at a mass ratio of 1:3.

Substance | expression level of the gene for anti-inflammatory factor IL-10 (relative mRNA, RT-qPCR) [1] | expression level of the gene for pro-inflammatory factor OX40L (relative mRNA, RT-qPCR) [1] | expression level of the gene for Th1-type associated cytokine T-bet (relative mRNA, RT-qPCR) [2] | expression level of the gene for Th2-type cytokine IL-5 (relative mRNA, RT-qPCR) [2] | expression level of the gene for Th1-type associated cytokine IFN-γ in spleen (relative mRNA, RT-qPCR) (food allergy mice) | expression level of the gene for Th2-type cytokine IL-4 in spleen (relative mRNA, RT-qPCR) (food allergy mice)
2′-fucosyllactose [intervention group 2] | significantly stimulate an expression level of a gene for IL-10 to further increase | can be reduced | significantly stimulate an expression level of the gene for T-bet to increase | decreases to some degree | greatly stimulate an expression level of the gene for IFN-γ to further increase | decrease significantly
lacto-N-fucopentaose I [intervention group 1] | significantly stimulate an expression level of a gene for IL-10 to further increase; also recorded: increases more than an expression level of the gene for IL-10 in the intervention group 2 | can be reduced | significantly stimulate an expression level of the gene for T-bet to increase; also recorded: increases more significantly than an expression level of the gene for T-bet in the intervention group 2 | decreases slightly | significantly stimulate an expression level of the gene for IFN-γ to further increase | does not change significantly

Source: US20250032523A1, “ACTIVE HUMAN MILK OLIGOSACCHARIDE PREPARATION WITH ALLERGY-ALLEVIATING FUNCTION, AND USE THEREOF” (Zhejiang Gongshang University, priority 2023, published 2025)
